Reference: patent US10544147B2, “Purine inhibitors of human phosphatidylinositol 3-kinase delta” (MERCK SHARP & DOHME CORP., priority 2016, dated 2020)

What was measured:
PI3Kdelta = PI3Kdelta (Homo sapiens (Human), UniProt O00329); experiment: HTRF PI3K biochemical assay, delta isoform; conditions: 0.3 nM enzyme, 100 uM ATP, 50 uM PIP2; form screened (neutral or TFA salt)
Protocol: (§1) HTRF PI3K Biochemical Assay to Measure Intrinsic Potency of Compound Inhibitors
(§2) This loss of signal is nonlinear with respect to both increasing product and time. This non-linear detection will impact accuracy of IC50 calculations; therefore, there is a need for a correction factor to obtain more accurate IC50 values. This correction is derived from a PIP3 standard curve run in a separate assay plate. All data were calculated using the ratio of acceptor (APC) to donor (Europium) fluorescence in each well of the assay plate. […] An IC50 was then calculated fitting the % inhibition data to the equation: % inhibition=min+(Max−min)/1+([inhibitor]/IC50)^n) where min is the % inhibition with inhibitor, max is the signal in DMSO control, and n is the Hill slope.
(§3) The biological data was collected using the methodology described above.

PI3Kalpha = PI3Kalpha (Homo sapiens (Human), UniProt P42336); experiment: HTRF PI3K biochemical assay, alpha isoform (selectivity versus delta); conditions: ratio PI3K-alpha IC50 value/PI3K-delta IC50 value
Chain of PI3Kalpha (P42336 whole entry, canonical isoform): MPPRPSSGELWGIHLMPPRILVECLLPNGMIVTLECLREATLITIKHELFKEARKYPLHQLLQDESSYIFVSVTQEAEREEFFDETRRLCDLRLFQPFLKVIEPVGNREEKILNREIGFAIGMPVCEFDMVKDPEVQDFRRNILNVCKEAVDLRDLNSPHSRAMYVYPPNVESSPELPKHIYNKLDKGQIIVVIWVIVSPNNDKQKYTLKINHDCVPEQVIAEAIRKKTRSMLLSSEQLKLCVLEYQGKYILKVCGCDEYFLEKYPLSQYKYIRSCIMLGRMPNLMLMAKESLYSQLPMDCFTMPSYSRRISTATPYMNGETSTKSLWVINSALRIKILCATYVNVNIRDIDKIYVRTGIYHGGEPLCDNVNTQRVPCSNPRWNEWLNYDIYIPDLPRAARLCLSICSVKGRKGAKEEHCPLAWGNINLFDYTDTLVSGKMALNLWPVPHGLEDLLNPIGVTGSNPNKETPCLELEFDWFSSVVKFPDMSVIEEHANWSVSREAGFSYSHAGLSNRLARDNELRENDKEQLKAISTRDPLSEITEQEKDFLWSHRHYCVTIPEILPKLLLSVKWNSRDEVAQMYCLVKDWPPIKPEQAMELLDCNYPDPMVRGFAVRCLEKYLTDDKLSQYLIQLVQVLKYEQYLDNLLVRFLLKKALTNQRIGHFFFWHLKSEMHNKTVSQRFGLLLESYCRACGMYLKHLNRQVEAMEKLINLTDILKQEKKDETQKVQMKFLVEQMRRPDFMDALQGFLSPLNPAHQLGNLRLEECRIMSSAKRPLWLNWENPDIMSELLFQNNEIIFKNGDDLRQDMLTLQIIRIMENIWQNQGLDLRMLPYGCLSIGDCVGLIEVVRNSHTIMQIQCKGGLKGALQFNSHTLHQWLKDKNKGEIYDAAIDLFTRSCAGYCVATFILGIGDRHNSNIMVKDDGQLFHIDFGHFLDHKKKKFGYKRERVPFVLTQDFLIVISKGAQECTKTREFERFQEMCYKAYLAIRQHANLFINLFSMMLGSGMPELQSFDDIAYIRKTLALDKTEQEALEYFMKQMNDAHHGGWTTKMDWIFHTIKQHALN
Chain of PI3Kalpha (P27986 whole entry partner, canonical isoform): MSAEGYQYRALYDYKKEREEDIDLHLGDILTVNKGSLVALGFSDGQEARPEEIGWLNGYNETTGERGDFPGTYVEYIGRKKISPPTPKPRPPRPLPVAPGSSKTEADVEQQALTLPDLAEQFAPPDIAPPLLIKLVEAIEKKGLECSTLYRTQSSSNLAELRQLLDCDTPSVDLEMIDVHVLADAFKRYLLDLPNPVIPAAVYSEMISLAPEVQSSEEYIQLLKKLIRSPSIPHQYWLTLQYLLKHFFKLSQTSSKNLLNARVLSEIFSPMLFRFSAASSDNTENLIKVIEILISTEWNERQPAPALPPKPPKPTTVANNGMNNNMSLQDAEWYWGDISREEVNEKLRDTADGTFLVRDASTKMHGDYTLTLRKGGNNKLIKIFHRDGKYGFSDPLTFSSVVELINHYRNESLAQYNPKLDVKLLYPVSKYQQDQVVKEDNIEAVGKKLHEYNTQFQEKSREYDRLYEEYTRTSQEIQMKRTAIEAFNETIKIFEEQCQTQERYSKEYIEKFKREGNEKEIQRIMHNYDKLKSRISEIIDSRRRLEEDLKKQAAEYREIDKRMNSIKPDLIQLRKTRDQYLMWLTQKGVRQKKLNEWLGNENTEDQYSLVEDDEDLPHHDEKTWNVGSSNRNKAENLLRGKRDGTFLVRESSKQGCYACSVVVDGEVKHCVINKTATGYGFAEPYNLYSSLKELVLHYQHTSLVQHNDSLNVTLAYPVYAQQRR
Protocol: as §1, §2, §3
The determination of relative selectivity for a given compound is defined as the relative ratio of the (PI3K-alphaIC50 value/PI3K-delta IC50 value).

Chain of PI3Kdelta (O00329 whole entry, canonical isoform): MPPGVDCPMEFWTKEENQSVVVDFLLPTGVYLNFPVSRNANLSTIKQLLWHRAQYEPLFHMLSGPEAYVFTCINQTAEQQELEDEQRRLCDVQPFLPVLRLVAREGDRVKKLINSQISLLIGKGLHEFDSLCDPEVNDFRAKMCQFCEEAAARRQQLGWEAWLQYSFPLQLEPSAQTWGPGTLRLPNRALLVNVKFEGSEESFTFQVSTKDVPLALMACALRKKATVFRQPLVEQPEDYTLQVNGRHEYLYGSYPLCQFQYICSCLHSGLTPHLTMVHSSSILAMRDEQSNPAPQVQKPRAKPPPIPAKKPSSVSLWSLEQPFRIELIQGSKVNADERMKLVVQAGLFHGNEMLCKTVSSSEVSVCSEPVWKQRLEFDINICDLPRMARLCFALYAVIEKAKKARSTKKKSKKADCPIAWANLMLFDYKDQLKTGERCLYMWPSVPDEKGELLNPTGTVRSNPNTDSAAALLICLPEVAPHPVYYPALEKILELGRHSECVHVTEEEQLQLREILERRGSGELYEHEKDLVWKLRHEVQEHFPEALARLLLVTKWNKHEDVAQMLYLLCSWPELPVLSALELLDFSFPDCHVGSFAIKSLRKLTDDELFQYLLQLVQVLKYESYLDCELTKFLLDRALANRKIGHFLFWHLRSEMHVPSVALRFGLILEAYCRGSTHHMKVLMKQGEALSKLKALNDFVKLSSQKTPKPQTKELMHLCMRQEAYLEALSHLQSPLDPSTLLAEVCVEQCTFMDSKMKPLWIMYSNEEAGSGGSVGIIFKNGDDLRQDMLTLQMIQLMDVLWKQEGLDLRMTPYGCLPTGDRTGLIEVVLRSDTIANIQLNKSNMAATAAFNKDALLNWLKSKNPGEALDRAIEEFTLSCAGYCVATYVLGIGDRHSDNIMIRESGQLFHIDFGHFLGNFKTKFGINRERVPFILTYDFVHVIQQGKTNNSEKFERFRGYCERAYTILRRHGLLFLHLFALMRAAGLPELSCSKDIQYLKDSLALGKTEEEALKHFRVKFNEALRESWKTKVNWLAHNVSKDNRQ
Chain of PI3Kdelta (P27986 whole entry partner, canonical isoform): as the sequence (P27986 whole entry partner, canonical isoform) above

Compound: Cc1ncc(-c2nc3c(-c4cnc5c(c4)C(C)(CC(C)C)C(=O)N5)ncnc3n2C)cn1 (single isomer, unassigned) [Compound 1-26, (R or S)-3-isobutyl-3-methyl-5-(9-methyl-8-(2-methylpyrimidin-5-yl)-9H-purin-6-yl)-1,3-dihydro-2H-pyrrolo[2,3-b]pyridin-2-one]
- IC50 (PI3Kdelta): 0.05 µM
- Relative Selectivity versus PI3Kalpha (PI3Kalpha): >10

Compound: Cc1ncc(-c2nc3c(-c4cnc5c(c4)C(C)(CC(C)C)C(=O)N5)ncnc3n2C)cn1 (single isomer, unassigned) [Compound 1-27, (R or S)-3-isobutyl-3-methyl-5-(9-methyl-8-(2-methylpyrimidin-5-yl)-9H-purin-6-yl)-1,3-dihydro-2H-pyrrolo[2,3-b]pyridin-2-one]
- IC50 (PI3Kdelta): 0.005 µM
- Relative Selectivity versus PI3Kalpha (PI3Kalpha): >10

Compound: CCn1c(-c2cnc(C)nc2)nc2c(-c3ccc4c(c3)C(C)(C3CCOCC3)C(=O)N4)ncnc21 (single isomer, unassigned) [Compound 1-34, 5-(9-Ethyl-8-(2-methylpyrimidin-5-yl)-9H-purin-6-yl)-3-methyl-3-(tetrahydro-2H-pyran-4-yl)indolin-2-one]
- IC50 (PI3Kdelta): 0.048 µM
- Relative Selectivity versus PI3Kalpha (PI3Kalpha): 8

Compound: CCn1c(-c2cnc(C)nc2)nc2c(-c3ccc4c(c3)C(C)(C3CCOCC3)C(=O)N4)ncnc21 (single isomer, unassigned) [Compound 1-35, 5-(9-Ethyl-8-(2-methylpyrimidin-5-yl)-9H-purin-6-yl)-3-methyl-3-(tetrahydro-2H-pyran-4-yl)indolin-2-one]
- IC50 (PI3Kdelta): 0.005 µM
- Relative Selectivity versus PI3Kalpha (PI3Kalpha): >10

Compound: CCn1c(-c2cnc(C)nc2)nc2c(-c3ccc4c(c3)C(C)(CC)C(=O)N4)ncnc21 (single isomer, unassigned) [Compound 1-38, (R or S)-3-ethyl-5-(9-ethyl-8-(2-methylpyrimidin-5-yl)-9H-purin-6-yl)-3-methylindolin-2-one]
- IC50 (PI3Kdelta): 0.08 µM
- Relative Selectivity versus PI3Kalpha (PI3Kalpha): >10

Compound: CCn1c(-c2cnc(C)nc2)nc2c(-c3ccc4c(c3)C(C)(CC)C(=O)N4)ncnc21 (single isomer, unassigned) [Compound 1-39, (R or S)-3-ethyl-5-(9-ethyl-8-(2-methylpyrimidin-5-yl)-9H-purin-6-yl)-3-methylindolin-2-one]
- IC50 (PI3Kdelta): 0.085 µM
- Relative Selectivity versus PI3Kalpha (PI3Kalpha): >10

Compound: CCn1c(-c2cnc(C)nc2)nc2c(-c3ccc4c(c3)C(C)(CC(C)(C)O)C(=O)N4)ncnc21 (single isomer, unassigned) [Compound 1-40, 5-(9-Ethyl-8-(2-methylpyrimidin-5-yl)-9H-purin-6-yl)-3-(2-hydroxy-2-methylpropyl)-3-methylindolin-2-one]
- IC50 (PI3Kdelta): 0.142 µM
- Relative Selectivity versus PI3Kalpha (PI3Kalpha): >10

Compound: CCn1c(-c2cnc(C)nc2)nc2c(-c3ccc4c(c3)C(C)(CC(C)(C)O)C(=O)N4)ncnc21 (single isomer, unassigned) [Compound 1-41, 5-(9-Ethyl-8-(2-methylpyrimidin-5-yl)-9H-purin-6-yl)-3-(2-hydroxy-2-methylpropyl)-3-methylindolin-2-one]
- IC50 (PI3Kdelta): 0.023 µM
- Relative Selectivity versus PI3Kalpha (PI3Kalpha): >10

Compound: CCn1c(-c2cnc(C)nc2)nc2c(-c3ccc4c(c3)C(C)(N3C[C@@H](C)O[C@@H](C)C3)C(=O)N4)ncnc21 (single isomer, unassigned) [Compound 2-3, (R or S)-3-[(cis)-2,6-dimethylmorpholin-4-yl]-5-[9-ethyl-8-(2-methylpyrimidin-5-yl)-9H-purin-6-yl]-3-methyl-1,3-dihydro-2H-indol-2-one]
- IC50 (PI3Kdelta): 0.145 µM
- Relative Selectivity versus PI3Kalpha (PI3Kalpha): 4

Compound: CCn1c(-c2cnc(C)nc2)nc2c(-c3ccc4c(c3)C(C)(N3C[C@@H](C)O[C@@H](C)C3)C(=O)N4)ncnc21 (single isomer, unassigned) [Compound 2-4, (R or S)-3-[(cis)-2,6-dimethylmorpholin-4-yl]-5-[9-ethyl-8-(2-methylpyrimidin-5-yl)-9H-purin-6-yl]-3-methyl-1,3-dihydro-2H-indol-2-one]
- IC50 (PI3Kdelta): 0.005 µM
- Relative Selectivity versus PI3Kalpha (PI3Kalpha): >10

Compound: CCn1c(-c2cnc(C)nc2)nc2c(-c3ccc4c(c3)C(C)(N3CC(C)(C#N)C3)C(=O)N4)ncnc21 (single isomer, unassigned) [Compound 2-5, (R or S)-1-{5-[9-ethyl-8-(2-methylpyrimidin-5-yl)-9H-purin-6-yl]-3-methyl-2-oxo-2,3-dihydro-1H-indol-3-yl}-3-methylazetidine-3-carbonitrile]
- IC50 (PI3Kdelta): 0.073 µM
- Relative Selectivity versus PI3Kalpha (PI3Kalpha): >10

Compound: CCn1c(-c2cnc(C)nc2)nc2c(-c3ccc4c(c3)C(C)(N3CC(C)(C#N)C3)C(=O)N4)ncnc21 (single isomer, unassigned) [Compound 2-6, (R or S)-1-{5-[9-ethyl-8-(2-methylpyrimidin-5-yl)-9H-purin-6-yl]-3-methyl-2-oxo-2,3-dihydro-1H-indol-3-yl}-3-methylazetidine-3-carbonitrile]
- IC50 (PI3Kdelta): 0.003 µM
- Relative Selectivity versus PI3Kalpha (PI3Kalpha): >10

Compound: CCn1c(-c2cnc(C)nc2)nc2c(-c3ccc4c(c3)C(C)(N3CC5(CCO5)C3)C(=O)N4)ncnc21 (single isomer, unassigned) [Compound 2-7, (R or S)-5-[9-ethyl-8-(2-methylpyrimidin-5-yl)-9H-purin-6-yl]-3-methyl-3-(1-oxa-6-azaspiro[3.3]hept-6-yl)-1,3-dihydro-2H-indol-2-one]
- IC50 (PI3Kdelta): 0.008 µM
- Relative Selectivity versus PI3Kalpha (PI3Kalpha): >10

Compound: CCn1c(-c2cnc(C)nc2)nc2c(-c3ccc4c(c3)C(C)(N3CC5(CCO5)C3)C(=O)N4)ncnc21 (single isomer, unassigned) [Compound 2-8, (R or S)-5-[9-ethyl-8-(2-methylpyrimidin-5-yl)-9H-purin-6-yl]-3-methyl-3-(1-oxa-6-azaspiro[3.3]hept-6-yl)-1,3-dihydro-2H-indol-2-one]
- IC50 (PI3Kdelta): 0.129 µM
- Relative Selectivity versus PI3Kalpha (PI3Kalpha): >10

Compound: CCn1c(-c2cnc(C)nc2)nc2c(-c3ccc4c(c3)C(C)(N[C@@H](C)C3CC3)C(=O)N4)ncnc21 (single isomer, unassigned) [Compound 2-12, 3-{[(1S)-1-cyclopropylethyl]amino}-5-[9-ethyl-8-(2-methylpyrimidin-5-yl)-9H-purin-6-yl]-3(R or S)-methyl-1,3-dihydro-2H-indol-2-one]
- IC50 (PI3Kdelta): 0.005 µM
- Relative Selectivity versus PI3Kalpha (PI3Kalpha): >10

Compound: CCn1c(-c2cnc(C)nc2)nc2c(-c3ccc4c(c3)C(C)(N[C@@H](C)C3CC3)C(=O)N4)ncnc21 (single isomer, unassigned) [Compound 2-13, 3-{[(1S)-1-cyclopropylethyl]amino}-5-[9-ethyl-8-(2-methylpyrimidin-5-yl)-9H-purin-6-yl]-3(R or S)-methyl-1,3-dihydro-2H-indol-2-one]
- IC50 (PI3Kdelta): 0.032 µM
- Relative Selectivity versus PI3Kalpha (PI3Kalpha): >10

Compound: CCn1c(-c2cnc(C)nc2)nc2c(-c3ccc4c(c3)C(C)(NC(C)C)C(=O)N4)ncnc21 (single isomer, unassigned) [Compound 2-31, (R or S)-5-[9-ethyl-8-(2-methylpyrimidin-5-yl)-9H-purin-6-yl]-3-methyl-3-[(1-methylethyl)amino]-1,3-dihydro-2H-indol-2-one]
- IC50 (PI3Kdelta): 0.479 µM
- Relative Selectivity versus PI3Kalpha (PI3Kalpha): >10

Compound: CCn1c(-c2cnc(C)nc2)nc2c(-c3ccc4c(c3)C(C)(NC(C)C)C(=O)N4)ncnc21 (single isomer, unassigned) [Compound 2-32, (R or S)-5-[9-ethyl-8-(2-methylpyrimidin-5-yl)-9H-purin-6-yl]-3-methyl-3-[(1-methylethyl)amino]-1,3-dihydro-2H-indol-2-one]
- IC50 (PI3Kdelta): 0.027 µM
- Relative Selectivity versus PI3Kalpha (PI3Kalpha): >10

Compound: CCn1c(-c2cnc(C)nc2)nc2c(-c3ccc4c(c3)C(C)(NCC3CC3)C(=O)N4)ncnc21 (single isomer, unassigned) [Compound 2-33, (R or S)-3-[(cyclopropylmethyl)amino]-5-[9-ethyl-8-(2-methylpyrimidin-5-yl)-9H-purin-6-yl]-3-methyl-1,3-dihydro-2H-indol-2-one]
- IC50 (PI3Kdelta): 2.75 µM
- Relative Selectivity versus PI3Kalpha (PI3Kalpha): >4

Compound: CCn1c(-c2cnc(C)nc2)nc2c(-c3ccc4c(c3)C(C)(NCC3CC3)C(=O)N4)ncnc21 (single isomer, unassigned) [Compound 2-34, (R or S)-3-[(cyclopropylmethyl)amino]-5-[9-ethyl-8-(2-methylpyrimidin-5-yl)-9H-purin-6-yl]-3-methyl-1,3-dihydro-2H-indol-2-one]
- IC50 (PI3Kdelta): 0.029 µM
- Relative Selectivity versus PI3Kalpha (PI3Kalpha): >10

Compound: CCn1c(-c2cnc(C)nc2)nc2c(-c3ccc4c(c3)C(C)(NCC(C)(C)C#N)C(=O)N4)ncnc21 (single isomer, unassigned) [Compound 2-39, (R or S)-3-((5-(9-ethyl-8-(2-methylpyrimidin-5-yl)-9H-purin-6-yl)-3-methyl-2-oxoindolin-3-yl)amino)-2,2-dimethylpropanenitrile]
- IC50 (PI3Kdelta): 0.003 µM
- Relative Selectivity versus PI3Kalpha (PI3Kalpha): >10

Compound: CCn1c(-c2cnc(C)nc2)nc2c(-c3ccc4c(c3)C(C)(NCC(C)(C)C#N)C(=O)N4)ncnc21 (single isomer, unassigned) [Compound 2-40, (R or S)-3-((5-(9-ethyl-8-(2-methylpyrimidin-5-yl)-9H-purin-6-yl)-3-methyl-2-oxoindolin-3-yl)amino)-2,2-dimethylpropanenitrile]
- IC50 (PI3Kdelta): 0.179 µM
- Relative Selectivity versus PI3Kalpha (PI3Kalpha): >10
